System: canine fecal microbiome
Conditions: dog, in vivo

In the case of `Cc1ncc([N+](=O)[O-])n1CCO` [metronidazole], the “dysbiosis (community evenness, distance from healthy controls, potential pathogens)” value is reported as “exacerbated dysbiosis”.

— patent US12501917B2, “Methods and compositions for treating intestinal disorder” (MARS, INCORPORATED, priority 2019, dated 2025)
